Results reported in the NIST ThermoML archive (doi:10.1016/j.fluid.2008.07.004).
± gives the expanded uncertainty stated by the source.

Conditions: Liquid

SMILES | vapor or sublimation pressure (330.05 K) [kPa] | vapor or sublimation pressure (352.65 K) [kPa]
COC(C)=O [methyl ethanoate] | 101.3 ± 3.6 | –
CCC(=O)OC [methyl propanoate] | – | 101.3 ± 4
